Source: patent US10889584B2, “Bicyclic bis-heteroaryl derivatives as modulators of protein aggregation” (UCB Biopharma SRL, priority 2017, dated 2021)

Target: T1, α-synuclein peptide fragments (Peptide 4F, CTGFVKKDQLGK) (Homo sapiens, UniProt P37840)
T1 construct: purchased American Peptide
Assay: In-vitro fluorescence polarization assay with alpha-synuclein peptide fragment (4F)
Type: biochemical
Details: peptide 4F 100 nM, 120 min at room temperature, compound 33.3 to 0.015 microM, 50 mM HEPES pH 7.4, 50 mM NaCl, read-out: IC50 (inhibition of self-aggregation of α-synuclein peptide fragment 4F)
Description: Biological Example 1: In-Vitro Fluorescence Polarization Assay with Alpha-Synuclein Peptide Fragment (4F)
The fluorescence polarization assay tests the ability of compounds to inhibit the self-aggregation of α-synuclein peptide fragments. Peptides were incubated for 120 min at room temperature in the presence or absence of test compounds (compound concentrations were 33.3 to 0.015 microM). Samples were read on a Beckman Coulter DTX 880 plate reader in fluorescence polarization mode using excitation at 485 nm and emission at 520 nm. Data was analyzed using a four-parameter logistic fit (XLFit, IDBS Software). Peptide 4F (CTGFVKKDQLGK (SEQ ID NO: 1)) was prepared by American Peptide. Fresh peptide samples were reconstituted in purified water at 5 mM and diluted into 50 mM HEPES pH 7.4 with 50 mM NaCl to 100 nM final concentration. Solid compounds were dissolved in DMSO (10 mM), and then diluted serially in DMSO (300×) followed by dilution in buffer (1×) to provide solutions with a consistent final DMSO concentration of 0.33%.

| IC50 [nM] | SMILES |
| --- | --- |
| 1400 | CCCCC(Cc1c[nH]c2ccccc12)NC(=O)c1cnc(N2CCn3c(cc(C(F)(F)F)cc3=O)C2)s1 (centres unmarked) [Example 13, N-[1-(1H-indol-3-ylmethyl)pentyl]-2-[6-oxo-8-(trifluoromethyl)-3,4-dihydro-1H-pyrido[1,2-a]pyrazin-2-yl]thiazole-5-carboxamide] |
| 1300 | CCCCC(Cc1c[nH]c2ccccc12)NC(=O)c1cnc(N2CCn3nccc3C2)s1 (centres unmarked) [Example 19, 2-(6,7-dihydro-4H-pyrazolo[1,5-a]pyrazin-5-yl)-N-[1-(1H-indol-3-ylmethyl)pentyl]thiazole-5-carboxamide] |
| 1200 | CCCCC(Cc1c[nH]c2ccccc12)NC(=O)c1cnc(N2CCn3c(nnc3C(F)(F)F)C2)s1 (centres unmarked) [Example 18, N-[1-(1H-indol-3-ylmethyl)pentyl]-2-[3-(trifluoromethyl)-6,8-dihydro-5H-[1,2,4]triazolo[4,3-a]pyrazin-7-yl]thiazole-5-carboxamide] |
| 1200 | CCCCC(Cc1c[nH]c2ccccc12)NC(=O)c1cnc(N2CCc3nn(C)cc3C2)s1 (centres unmarked) [Example 20, N-[1-(1H-indol-3-ylmethyl)pentyl]-2-(2-methyl-6,7-dihydro-4H-pyrazolo[4,3-c]pyridin-5-yl)thiazole-5-carboxamide] |
| 2200 | CCCCC(Cc1c[nH]c2ccccc12)NC(=O)c1cnc(N2CCc3[nH]ncc3C2)s1 (centres unmarked) [Example 3, N-[1-(1H-indol-3-ylmethyl)pentyl]-2-(1,4,6,7-tetrahydropyrazolo[4,3-c]pyridin-5-yl)thiazole-5-carboxamide] |
| 800 | CCCCC(Cc1c[nH]c2ccccc12)NC(=O)c1cnc(N2CCc3onc(C(F)(F)F)c3C2)s1 (centres unmarked) [Example 11, N-[1-(1H-indol-3-ylmethyl)pentyl]-2-[3-(trifluoromethyl)-6,7-dihydro-4H-isoxazolo[4,5-c]pyridin-5-yl]thiazole-5-carboxamide] |
| 900 | CCCCC(Cc1c[nH]c2ccccc12)NC(=O)c1cnc(N2CCc3noc(C(F)(F)F)c3C2)s1 (centres unmarked) [Example 12, N-[1-(1H-indol-3-ylmethyl)pentyl]-2-[3-(trifluoromethyl)-6,7-dihydro-4H-isoxazolo[4,3-c]pyridin-5-yl]thiazole-5-carboxamide] |
| 1300 | CCCCC(Cc1c[nH]c2ccccc12)NC(=O)c1cnc(N2CCc3oncc3C2)s1 (centres unmarked) [Example 15, 2-(6,7-dihydro-4H-isoxazolo[4,5-c]pyridin-5-yl)-N-[1-(1H-indol-3-ylmethyl)pentyl]thiazole-5-carboxamide] |
| 1000 | CCCCC(Cc1c[nH]c2ccccc12)NC(=O)c1cnc(N2CCc3c(cnn3C)C2)s1 (centres unmarked) [Example 16, N-[1-(1H-indol-3-ylmethyl)pentyl]-2-(1-methyl-6,7-dihydro-4H-pyrazolo[4,3-c]pyridin-5-yl)thiazole-5-carboxamide] |
| 840 | CCCCC(Cc1c[nH]c2ccccc12)NC(=O)c1cnc(N2CCc3onc(C)c3C2)s1 (centres unmarked) [Example 10, N-[1-(1H-indol-3-ylmethyl)pentyl]-2-(3-methyl-6,7-dihydro-4H-isoxazolo[4,5-c]pyridin-5-yl)thiazole-5-carboxamide] |

Further lines, the molecule ahead of its results:

| SMILES | IC50 [nM] |
| --- | --- |
| CCCCC(Cc1c[nH]c2ccccc12)NC(=O)c1cnc(N2CCn3ncnc3C2)s1 (centres unmarked) [Example 7, 2-(6,8-dihydro-5H-[1,2,4]triazolo[1,5-a]pyrazin-7-yl)-N-[1-(1H-indol-3-ylmethyl)pentyl]thiazole-5-carboxamide] | 2200 |
| CCCCC(Cc1c[nH]c2ccccc12)NC(=O)c1cnc(N2CCn3cnnc3C2)s1 (centres unmarked) [Example 2, 2-(6,8-dihydro-5H-[1,2,4]triazolo[4,3-a]pyrazin-7-yl)-N-[1-(1H-indol-3-ylmethyl)pentyl]thiazole-5-carboxamide] | 2300 |
| CCCCC(Cc1c[nH]c2ccccc12)NC(=O)c1cnc(N2CCn3cncc3C2)s1 (centres unmarked) [Example 9, 2-(6,8-dihydro-5H-imidazo[1,5-a]pyrazin-7-yl)-N-[1-(1H-indol-3-ylmethyl)pentyl]thiazole-5-carboxamide] | 1500 |
| CCCCC(Cc1c[nH]c2ccccc12)NC(=O)c1cnc(N2CCn3ccnc3C2)s1 (centres unmarked) [Example 17, 2-(6,8-dihydro-5H-imidazo[1,2-a]pyrazin-7-yl)-N-[1-(1H-indol-3-ylmethyl)pentyl]thiazole-5-carboxamide] | 1600 |
| CCCCC(Cc1c[nH]c2ccccc12)NC(=O)c1cnc(N2CCn3c(C)nnc3C2)s1 (centres unmarked) [Example 14, N-[1-(1H-indol-3-ylmethyl)pentyl]-2-(3-methyl-6,8-dihydro-5H-[1,2,4]triazolo[4,3-a]pyrazin-7-yl)thiazole-5-carboxamide] | 1700 |
| CCCCC(Cc1c[nH]c2ccccc12)NC(=O)c1cnc(N2CCn3nc(C)cc3C2)s1 (centres unmarked) [Example 4, N-[1-(1H-indol-3-ylmethyl)pentyl]-2-(2-methyl-6,7-dihydro-4H-pyrazolo[1,5-a]pyrazin-5-yl)thiazole-5-carboxamide] | 1400 |
| CCCCC(Cc1c[nH]c2ccccc12)NC(=O)c1cnc(N2CCn3nc(C)nc3C2)s1 (centres unmarked) [Example 8, N-[1-(1H-indol-3-ylmethyl)pentyl]-2-(2-methyl-6,8-dihydro-5H-[1,2,4]triazolo[1,5-a]pyrazin-7-yl)thiazole-5-carboxamide] | 1600 |
| CCCCC(Cc1c[nH]c2ccccc12)NC(=O)c1cnc(N2Cc3cnn(C)c3C2)s1 (centres unmarked) [Example 5, N-[1-(1H-indol-3-ylmethyl)pentyl]-2-(1-methyl-4,6-dihydropyrrolo[3,4-c]pyrazol-5-yl)thiazole-5-carboxamide] | 2100 |
| CCCCC(Cc1c[nH]c2ccccc12)NC(=O)c1cnc(N2Cc3cn[nH]c3C2)s1 (centres unmarked) [Example 1, 2-(4,6-dihydro-1H-pyrrolo[3,4-c]pyrazol-5-yl)-N-[1-(1H-indol-3-ylmethyl)pentyl]thiazole-5-carboxamide] | 2400 |
| CCCCC(Cc1c[nH]c2ccccc12)NC(=O)c1cnc(N2CCn3nncc3C2)s1 (centres unmarked) [Example 6, 2-(6,7-dihydro-4H-triazolo[1,5-a]pyrazin-5-yl)-N-[1-(1H-indol-3-ylmethyl)pentyl]thiazole-5-carboxamide] | 2600 |
